From paper PMC10840383, “Clinical features, functional consequences, and rescue pharmacology of missense GRID1 and GRID2 human variants” (Human Molecular Genetics, 2023)

Biological target: T1, GluD2-A654T-R710W (Rattus norvegicus, UniProt Q63226, A654T/R710W)
T1 construct: expressed in transfected cells; host or cells: Xenopus laevis oocytes injected with cRNA
T1 sequence (Q63226 24-1007 A654T/R710W): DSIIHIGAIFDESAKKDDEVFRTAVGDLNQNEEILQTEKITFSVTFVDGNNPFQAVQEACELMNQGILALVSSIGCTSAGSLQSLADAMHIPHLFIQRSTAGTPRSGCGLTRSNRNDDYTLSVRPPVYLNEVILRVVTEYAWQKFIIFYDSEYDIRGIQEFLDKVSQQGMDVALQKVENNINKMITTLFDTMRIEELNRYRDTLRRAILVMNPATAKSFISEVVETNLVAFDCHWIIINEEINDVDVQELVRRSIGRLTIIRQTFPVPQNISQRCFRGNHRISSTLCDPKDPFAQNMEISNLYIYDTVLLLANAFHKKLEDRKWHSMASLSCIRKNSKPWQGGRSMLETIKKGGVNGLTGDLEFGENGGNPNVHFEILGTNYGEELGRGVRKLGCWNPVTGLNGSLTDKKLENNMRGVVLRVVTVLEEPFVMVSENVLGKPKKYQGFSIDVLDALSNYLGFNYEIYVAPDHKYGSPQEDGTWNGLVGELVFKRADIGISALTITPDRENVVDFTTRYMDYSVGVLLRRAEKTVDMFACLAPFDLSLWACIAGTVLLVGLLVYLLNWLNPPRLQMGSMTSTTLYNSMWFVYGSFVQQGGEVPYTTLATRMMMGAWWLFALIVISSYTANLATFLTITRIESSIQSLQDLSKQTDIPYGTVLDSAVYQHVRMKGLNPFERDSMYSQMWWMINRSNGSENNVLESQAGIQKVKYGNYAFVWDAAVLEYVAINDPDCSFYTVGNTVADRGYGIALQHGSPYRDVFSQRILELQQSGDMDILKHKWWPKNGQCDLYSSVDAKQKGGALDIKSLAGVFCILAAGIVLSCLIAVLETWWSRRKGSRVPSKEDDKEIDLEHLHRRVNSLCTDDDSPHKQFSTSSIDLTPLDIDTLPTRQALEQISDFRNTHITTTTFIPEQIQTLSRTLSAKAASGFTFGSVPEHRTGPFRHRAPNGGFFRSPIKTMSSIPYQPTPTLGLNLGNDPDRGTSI
Assay: TEVC of constitutive current, Xenopus oocytes expressing GluD2-A654T-R710W
Assay type: cell-based
Description: Human GluD1 (GRID1) and rat GluD2 (Grid2) cDNAs were introduced into the pGEM-HE and pCI-neo vectors. GRID1 (NM_017551.3) gene fragments were synthesized by Integrated DNA Technologies and cloned into empty vectors using InFusion cloning (Clontech). […] However, rat and human GluD2-encoding cDNA are identical in the M3 domain in which many of the variants we studied reside (see Supplementary Fig. S1). The full open reading frame for both constructs were verified by Sanger sequencing (Eurofins) and the full plasmid sequence was verified by whole plasmid sequencing (plasmidsaurus). Variant cDNA changes identified in patients were introduced into the cloned human GRID1 (NM_017551.3) in pGEM-HE and cloned rat Grid2 cDNA sequence (NM_024379.1) in pGEM-HE vector using Quikchange Lightning (Agilent) protocol according to the manufacturer’s instructions. Vectors were linearized and cRNA was synthesized using T7 RNA mMESSAGE kit (Invitrogen).
Xenopus laevis oocytes were prepared from ovaries purchased from Xenopus 1 (Dexter, MI) as previously described, [68] and incubated at 16°C in culture Barth’s solution (in mM) 88 NaCl, 2.4 NaHCO3, 1 KCl, 0.33 Ca(NO3)2, 0.41 CaCl2, 0.82 MgSO4, 10 HEPES, pH 7.4 with NaOH, supplemented with 1 U/ml penicillin and 1 μg/ml streptomycin. Oocytes were injected with approximately 5–40 ng RNA per oocyte and then incubated at 16–19°C for 1–3 days in culture Barth’s solution. […] Two-electrode voltage clamp (TEVC) recordings were performed as previously described. Unless otherwise specified, extracellular solution contained (in mM) 90 NaCl, 3 KCl, 0.5 BaCl2, 0.01 EDTA, 10 HEPES, and was brought to pH 7.4 with NaOH. The oocytes were placed in a dual track recording chamber and gravity perfused with solution exchange controlled via a computer-driven 8-valve positioner (Digital MVP Valve). […] Recording electrodes were filled with 0.3 M KCl, and currents were recorded with membrane voltage held at −40 mV. To establish constitutive activity of recombinant receptors when compared to wild type receptors, we used the oocyte recording solution described above, but with 90 mM N-methyl-D-glucamine (NMDG) chloride replacing 90 mM NaCl. […] For Ca^2+ concentration-response curves, choline chloride was used to maintain equimolar concentrations of Cl^− ions in the extracellular solution across the changing concentrations of calcium chloride. All compounds used in this study for concentration-response oocyte recordings were dissolved in deionized water as 50–100 mM stock solutions. In some rescue pharmacology experiments, we substituted 1 mM CaCl2 for 0.5 mM BaCl2 to evaluate Ca^2+-dependent control of receptor responses.

SMILES	Effect on constitutive current, in words (compared to GluD2-A654T controls)	Ca2+ % Max (NMDG+ − Na+) Mean ± SEM (normalized to NMDG+ − Na+ difference current)	EC50 (potentiation of constitutive current, read-out: Ca2+ EC50 [95% CI]) [µM]	Ca2+ EC50 A654T/EC50 variant (ratio)	D-serine % Max (NMDG+ − Na+) Mean ± SEM (percent of constitutive leak current (NMDG+/Na+ difference current))
[Ca+2] [Ca^2+]	increased Ca^2+ potency	245 ± 15 (9) %	80	1.88	
N[C@H](CO)C(=O)O [D-serine]					42 ± 3.5 (14) %
